13 molecules from US20110190503A1, “Thiazolopyridin-2-yloxy-phenyl and thiazolopyrazin-2-yloxy-phenyl amines as modulators of leukotriene A4 hydrolase” (Janssen Pharmaceutical NV, priority 2008, published 2011) can be followed below.

Read-outs that look alike come from different tables or passages of the source.

For experiment [1], the target named is T1, recombinant human LTA4 hydrolase (rhLTA4H) (Homo sapiens, UniProt P09960).
T1 construct: made in house; host or cells: Spodoptera frugiperda (Sf-9) cells, recombinant baculovirus (pFastBac1)
T1 sequence (P09960 1-611): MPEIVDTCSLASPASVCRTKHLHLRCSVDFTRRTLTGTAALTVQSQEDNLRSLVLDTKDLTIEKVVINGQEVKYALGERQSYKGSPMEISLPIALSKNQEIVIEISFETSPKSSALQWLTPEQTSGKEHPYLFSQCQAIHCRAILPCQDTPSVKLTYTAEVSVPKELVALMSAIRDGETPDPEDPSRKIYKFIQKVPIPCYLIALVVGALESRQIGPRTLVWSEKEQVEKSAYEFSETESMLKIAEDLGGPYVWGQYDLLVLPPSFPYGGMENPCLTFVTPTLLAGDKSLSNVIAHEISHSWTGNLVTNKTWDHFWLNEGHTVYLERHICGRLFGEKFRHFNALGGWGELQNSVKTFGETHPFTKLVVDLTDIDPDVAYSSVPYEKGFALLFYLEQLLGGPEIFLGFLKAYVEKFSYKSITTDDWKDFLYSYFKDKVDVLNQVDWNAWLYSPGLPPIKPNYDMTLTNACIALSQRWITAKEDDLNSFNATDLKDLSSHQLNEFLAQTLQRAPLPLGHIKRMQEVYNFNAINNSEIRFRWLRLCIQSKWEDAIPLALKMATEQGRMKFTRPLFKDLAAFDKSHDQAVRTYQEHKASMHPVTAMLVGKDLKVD
The experiment can be described thus: Recombinant human LTA4 hydrolase assay for LTA4 hydrolase inhibitor activity. It counts as biochemical. To be noted: rhLTA4H, LTA4 substrate, LTB4 by immunoassay; single determination or average; read-out: IC50. In a few lines:
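LTB4 formed from LTA4 substrate (free acid from the methyl ester) was quantified by enzyme immunoassay after a 30 min rt reaction. Enzyme was 10 ng Sf-9-expressed human LTA4 hydrolase, pre-incubated 10 min with compound.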

In experiment [2] the test system is LTB4 production by calcium ionophore-stimulated murine blood. The experiment is described as follows: LTB4 production by calcium ionophore-stimulated murine blood for LTA4H inhibitor activity. It counts as cell-based, CD-1 mice. The note with it: murine blood diluted 1 in 15, calcium ionophore A23187, LTB4 by immunoassay, read-out: IC50. Put shortly: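 LTB4 quantified by EIA in supernatants after murine (CD-1) heparinized whole blood was exposed to compound for 15 min, then to 7 μg/mL (final) A23187 for 30 min, all at 37° C. Reported values: single runs or means; three or more runs include SD.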

As a reminder, the IC50 is the concentration that gives 50% inhibition. For the molecule `OC1(c2cccc(C(F)(F)F)c2)CCN(CCc2ccc(Oc3nc4ncccc4s3)cc2)CC1` [Example 64, 1-{2-[4-([1,3]Thiazolo[4,5-b]pyridin-2-yloxy)phenyl]ethyl}-4-[3-(trifluoromethyl)phenyl]piperidin-4-ol], the figures for the IC50 in experiment [1] and in experiment [2] (Mus musculus) were 27 nM and 220 nM, respectively.

With `c1cnc2nc(Oc3ccc(OCCN4CCC(Oc5ccncc5)CC4)cc3)sc2c1` [Example 13, 2-(4-{2-[4-(Pyridin-4-yloxy)piperidin-1-yl]ethoxy}phenoxy)[1,3]thiazolo[4,5-b]pyridine], the IC50 in experiment [1] worked out at 13 nM; in experiment [2] (Mus musculus) it was 120 nM.

Take `CC(=O)N1C[C@H]2CC[C@@H](C1)N2Cc1ccc(Oc2nc3ncccc3s2)cc1` [Example 107, meso-2-(4-{[3-Acetyl-3,8-diazabicyclo[3.2.1]oct-8-yl]methyl}phenoxy)[1,3]thiazolo[4,5-b]pyridine]: the half-maximal inhibitory concentration (IC50) in experiment [1] turned out to be 4 nM; in experiment [2] (Mus musculus), 3000 nM.

In the case of `OC1(c2ccccn2)CCN(Cc2ccc(Oc3nc4ncccc4s3)cc2)CC1` [Example 101, 4-Pyridin-2-yl-1-[4-([1,3]thiazolo[4,5-b]pyridin-2-yloxy)benzyl]piperidin-4-ol], the IC50 in experiment [1] came out at 11 nM; in experiment [2] (Mus musculus), 3 nM.

On to `CC(=O)N1C2CCC1CN(Cc1ccc(Oc3nc4ncccc4s3)cc1)C2` [Example 185, meso-2-[(4-{[8-Acetyl-3,8-diazabicyclo[3.2.1]oct-3-yl]methyl}phenyl)oxy][1,3]thiazolo[4,5-b]pyridine], for which the IC50 came to 7 nM in experiment [1] and 850 nM in experiment [2].

Regarding `c1ccc(CC2CCN(CCOc3ccc(Oc4nc5ncccc5s4)cc3)CC2)cc1` [Example 28, 2-{4-[2-(4-Benzylpiperidin-1-yl)ethoxy]phenoxy}[1,3]thiazolo[4,5-b]pyridine], the results for the 50% inhibitory concentration (IC50) in experiment [1] and in experiment [2] (Mus musculus) were 52 nM and 380 nM, respectively.

On to `CC(=O)N1C[C@@H]2C[C@H]1CN2Cc1ccc(Oc2nc3ncc(F)cc3s2)cc1` [Example 128, 2-(4-{[(1S,4S)-5-Acetyl-2,5-diazabicyclo[2.2.1]hept-2-yl]methyl}phenoxy)-6-fluoro[1,3]thiazolo[4,5-b]pyridine], for which the IC50 in experiment [1] was found to be 23 nM; in experiment [2] (Mus musculus) it was 5 nM.

For the molecule `FC1(F)CCN(Cc2ccc(Oc3nc4ncccc4s3)cc2)C1` [Example 93, 2-{4-[(3,3-Difluoropyrrolidin-1-yl)methyl]phenoxy}[1,3]thiazolo[4,5-b]pyridine], the results for the IC50 in experiment [1] and in experiment [2] (Mus musculus) were 55 nM and 520 nM, respectively.

As for `CC(=O)N1C[C@H]2CC[C@@H](C1)N2CCOc1ccc(Oc2nc3ncccc3s2)cc1` [Example 141, meso-2-{4-[2-(3-Acetyl-3,8-diazabicyclo[3.2.1]oct-8-yl)ethoxy]phenoxy}[1,3]thiazolo[4,5-b]pyridine], the figures for the IC50 in experiment [1] and in experiment [2] (Mus musculus) were 2 nM and 14 nM, respectively.

As for `OC1(c2ccc(Cl)cc2)CCN(Cc2ccc(Oc3nc4ncccc4s3)cc2)CC1` [Example 104, 4-(4-Chlorophenyl)-1-[4-([1,3]thiazolo[4,5-b]pyridin-2-yloxy)benzyl]piperidin-4-ol], the IC50 in experiment [1] is 1.9 nM; in experiment [2] (Mus musculus), 28 nM.

On to `c1cnc(OC2CCN(Cc3ccc(Oc4nc5nccnc5s4)cc3)CC2)nc1` [Example 184, 2-[(4-{[4-(Pyrimidin-2-yloxy)piperidin-1-yl]methyl}phenyl)oxy][1,3]thiazolo[4,5-b]pyrazine], for which the half-maximal inhibitory concentration (IC50) amounted to 18 nM in experiment [1] and 110 nM in experiment [2] (Mus musculus).

With `CC1CCN(Cc2ccc(Oc3nc4ncccc4s3)cc2)CC1` [Example 97, 2-{4-[(4-Methylpiperidin-1-yl)methyl]phenoxy}[1,3]thiazolo[4,5-b]pyridine], the results for the IC50 in experiment [1] and in experiment [2] (Mus musculus) were 1 nM and 13 nM, respectively.

As to `CC(=O)N1[C@@H]2CC[C@H]1CN(CCOc1ccc(Oc3nc4ncccc4s3)cc1)C2` [Example 162, meso-2-{[4-({2-[8-Acetyl-3,8-diazabicyclo[3.2.1]oct-3-yl]ethyl}oxy)phenyl]oxy}[1,3]thiazolo[4,5-b]pyridine], the IC50 in experiment [1] is 3 nM; in experiment [2] (Mus musculus), 12 nM.
